Experimental findings from PubChem BioAssay AID2305 (GlaxoSmithKline (GSK), 2010) are described below.

Usually IC50 stands for the concentration needed to halve the response being measured. A lower IC50 goes with greater potency.

The test system of this assay is P. falciparum 3D7 growth, pLDH absorbance. Kind of assay: blood-stage malaria parasite growth potency – strain 3D7, dose response (AID 2305).
`COc1ccc(NC(=O)[C@H](Cc2ccccc2)Nc2cc(C)nc(NCCc3ccccc3OC)n2)cc1` registered a half-inhibitory concentration (IC50) of 530 nM.

As for `COc1ccc(CNC2CCN(C)CC2)cc1-c1ccc(S(=O)(=O)NCc2cccnc2)s1`, the IC50 is 840 nM.

Consider `N#Cc1ccc(CN2CCCN(c3ccc(NC(=O)c4ccc(F)cc4)cc3)CC2)cc1`, for which the IC50 was 1280 nM.

In turn, `COCCNCc1ccc(-c2cccc(CNc3ccc(OC)cc3)c2)cc1` had an IC50 of 1040 nM.

Regarding `CCC[C@@H]([C@@H](CC1CCCCC1)C(=O)NC(C(=O)Nc1nccs1)C(CC)c1ccccc1)N(O)C=O` (some centres undefined), the IC50 was 690 nM.

As to `COc1cc2nc(NCCc3ccccc3)nc(N(C)Cc3ccccc3)c2cc1OC`, the IC50 was 830 nM.

The compound `Cc1cc(NC(=O)NCCN2CCC(NS(=O)(=O)c3ccccc3F)CC2)c2ccccc2n1` registered an IC50 of 950 nM.

With `CNC(=O)C1Cc2c([nH]c3c(C)cccc23)C2(N1)C(=O)Nc1ccc(OC(F)(F)F)cc12` (centres undefined), the IC50 amounted to 460 nM.

In turn, `Fc1ccc2nc(-c3ccc(-c4ccc(CNCC5CCCO5)cc4)cc3)[nH]c2c1` (centres undefined) had an IC50 of 440 nM.

For `COc1cccc2cc(C(=O)N[C@@H](CC(C)C)C(=O)N[C@H](/C=N/NC(=O)OC(C)(C)C)Cc3ccccc3)oc12`, the IC50 was 300 nM. The IC50 values of the last two compounds are within 1.5-fold of each other.

In turn, `CCCN(CC1CC1)c1ncc(-c2ccccc2CNCc2ccccc2O)cn1` showed an IC50 of 500 nM. This IC50 lies about 1.7-fold higher than the previous one.

Consider `O=C(Cc1cnc[nH]1)Nc1cccc(-c2ccc(-c3nc4ccc(F)cc4[nH]3)s2)c1`, for which the half-inhibitory concentration (IC50) was found to be 660 nM.

For `CCCc1cc(Cc2cnc(N)nc2N)cc(OC)c1OC`, the half-maximal inhibitory concentration (IC50) was determined as 990 nM. Compared with the last compound, the IC50 is about 1.5-fold higher.

`NC(=NCCCCCCCCN=C(N)Nc1ccc(Cl)cc1)Nc1ccc(Cl)cc1`: the IC50 came to 590 nM.

For the compound `OC(CNc1ccnc(Nc2ccc(Cl)cc2)n1)c1ccc(C(F)(F)F)cc1` (centres undefined), the IC50 worked out at 770 nM.

`O=C(CSc1n[nH]c(=O)n1Cc1ccccc1)Nc1ccccc1-c1ccccc1` showed an IC50 of 950 nM.

Take `COc1c(Br)cc(Br)cc1-c1ccc(CN2CC3CCC2CC3)[nH]1`: the IC50 is 690 nM.

`O=C(NC1CCCC1)c1ccc(N2CCC(NCc3cc4cc(Cl)ccc4[nH]3)CC2)cc1` yielded a half-maximal inhibitory concentration (IC50) of 1220 nM.

`CC(=O)Nc1cccc(CNCc2ccc(-c3cnc(N4CCCC(C)(C)C4)nc3)cc2)c1` yielded an IC50 of 820 nM. The IC50 values of the last two compounds are within 1.5-fold of each other.

The compound `COc1ccc(F)cc1-c1ccccc1CNC(=O)CN(C)S(=O)(=O)c1cc(C)cc(Cl)c1C` returned a concentration for half-maximal inhibition (IC50) of 660 nM.

`c1ccc(-c2nc(NCCCn3ccnc3)cc(-c3ccncc3)n2)cc1`: the IC50 is 170 nM. This IC50 lies about 3.9-fold lower than the previous one.

Consider `Cn1nccc1C(=O)NCCNCc1cccc(-c2cccc(-c3nc4ccc(F)cc4[nH]3)c2)c1`, for which the IC50 came out at 260 nM.

The compound `CN(C)Cc1ccc(-c2cccc(NC(=O)c3ccc(Cl)cc3)c2)cc1` came in with a half-maximal inhibitory concentration (IC50) of 900 nM.

The compound `OC(c1cc(C(F)(F)F)nc2c(C(F)(F)F)cccc12)C1CCCCN1` (centres undefined) had a 50% inhibitory concentration (IC50) of 70 nM.

Regarding `CCCOc1ccc(NC(=O)c2cccs2)cc1Cl`, the IC50 came to 860 nM.

The compound `COc1cc(Cc2cnc(N)nc2N)cc(OCCCCc2nn[nH]n2)c1OC` displayed a concentration for half-maximal inhibition (IC50) of 290 nM.

Regarding `COCCN1CCN(Cc2ccc(-c3ccc(-c4nc5c(C)cccc5[nH]4)s3)cc2)CC1`, the IC50 is 860 nM.

The compound `Nc1nc(N)c2c(ccc3nn(C4CCCC4)cc32)n1` registered an IC50 of 290 nM.

Compound `Cc1ccc2sc(N(CCCn3ccnc3)C(=O)c3ccco3)nc2c1C` showed an IC50 of 970 nM.

`COc1ccc2nccc(N3CCC(O)(CCNCc4ccc5c(n4)NC(=O)CO5)CC3)c2n1` displayed an IC50 of 820 nM.

Compound `CCCC(C)NC(=O)[C@H](Cc1ccccc1)NC(=O)c1ccc(O)c(-c2ccc(OC)cc2)c1` (some centres undefined) gave an IC50 of 1240 nM.

In turn, `COc1cc2cc(Cc3cnc(N)nc3N)ccc2c(OC)c1OC` registered a half-inhibitory concentration (IC50) of 240 nM.

`O=S(=O)(Nc1cccc(CCN2CCC(N3CCCCC3)CC2)c1)c1cccc2cccnc12` had an IC50 of 850 nM.

Take `CC(=O)C1(c2ccccc2)CCN(CCC2(c3ccc(Cl)c(Cl)c3)CN(C(=O)C3CCCCC3)CCO2)CC1` (centres undefined): the 50% inhibitory concentration (IC50) turned out to be 310 nM.

As to `O=C(/C=C/c1ccc(Cl)c(Cl)c1)NCCCCCN1CCC(NC(=O)Nc2cc(F)ccc2F)CC1`, the IC50 stood at 700 nM. Against the preceding compound, the IC50 is about 2.3-fold higher.

On to `O=C([C@@H]1CCCCN1c1ccc([N+](=O)[O-])c2ccccc12)N1CCN(c2ncccn2)CC1`, for which the IC50 amounted to 200 nM.

`N#Cc1cccc(NC(=O)Nc2ccc3c(c2)CCN(C2CCC2)CC3)c1` had an IC50 of 840 nM.

For the compound `Cn1c(NC(=O)c2ccc(CNC(=O)c3ccc(O)c(-c4ccc(Cl)c(Cl)c4)c3)cc2)nc2ccccc21`, the IC50 turned out to be 840 nM.

In turn, `Nc1c2ccccc2nc2cc([N+](=O)[O-])ccc12` returned a concentration for half-maximal inhibition (IC50) of 870 nM.

`C=CCOc1ccc(Cc2cnc(N)nc2N)cc1CCC`: the concentration for half-maximal inhibition (IC50) stood at 1020 nM.

As to `NC1=NC2(CCCC2)C(c2ccc(Cl)c(Cl)c2)C(N)=N1` (centres undefined), the IC50 turned out to be 990 nM.

Compound `CS(=O)(=O)c1cccc(-c2cnc(N)c3cc(-c4cccc(F)c4)ccc23)c1` showed an IC50 of 860 nM.

As for `Cc1cccc(OC2CCN(c3ncc(C(=O)NCCCN4CCCC4=O)cc3Cl)CC2)c1`, the IC50 came out at 180 nM.

In turn, `CC(C)c1ccc(NC(=O)Nc2ccc(Cn3ncc(N4CCCNCC4)c(Cl)c3=O)cc2)cc1` showed a half-inhibitory concentration (IC50) of 1050 nM.
